Where two headings read alike, the source gives them in different places.

Assay [1] can be described thus: Heart rate and blood pressure at peak exercise and in recovery, with atropine given during exercise. Format: in vivo, human. Here is the method: In experiments performed during development of embodiments of the present invention, the parasympathetic effects on cardiac electrophysiology during the post-exercise recovery period were studied. Subjects underwent upright bicycle exercise testing on two occasions. Continuous 12-lead ECG monitoring was performed using a commercially available system (Quest Exercise Stress System, Burdick, Deerfield Wis.) for a baseline period of 5 minutes prior to exercise. Subjects underwent a 16-minute submaximal exercise protocol on a stationary bicycle with an initial work load of 50 Watts followed by increases to 75 Watts at 4 minutes and 100 Watts at 8 minutes, as tolerated by the patient. Continuous ECG was recorded for up to 45 minutes of recovery. Blood samples for determination of plasma epinephrine and norepinephrine samples were taken during the rest period, at minutes 8 and 15 of exercise, and during the recovery period at 5, 10, 20, 30, and 45 minutes after cessation of exercise. […]

The conditions of assay [2]: Atropine test.
For assay [3] the following is noted: European (EMIAT) and Canadian (CAMIAT) post-myocardial infarction studies; cited from earlier work.
Setting [4] is: atropine test versus baseline test.
Setting [5] is: peak exercise, iv atropine 0.04 mg/kg from minute 12 of exercise.
Setting [6] is: recovery 5 min, iv atropine 0.04 mg/kg during exercise.
Where [7] appears, read: recovery 10 min, iv atropine 0.04 mg/kg during exercise.
Setting [8] is: recovery 20 min, iv atropine 0.04 mg/kg during exercise.
Where [9] appears, read: recovery 30 min, iv atropine 0.04 mg/kg during exercise.

Turning to `CN1[C@@H]2CC[C@H]1C[C@@H](OC(=O)C(CO)c1ccccc1)C2` (some centres unmarked) [Atropine, atropine], the “change in diastolic blood pressure” value in assay [1] (setting [4]) is reported as “no detectable changes”. For the same compound, in assay [1] (setting [4]), the “change in heart rate” value was “large changes in heart rate”. Further, the “change in systolic blood pressure” value in assay [1] (setting [4]) was “no detectable changes”. Also, the “Diastolic BP” value was 83 ± 14 mmHg in assay [1] (setting [5]); 78 ± 9 mmHg in assay [1] (setting [6]); 78 ± 9 mmHg in assay [1] (setting [7]); 78 ± 11 mmHg in assay [1] (setting [8]); 79 ± 9 mmHg in assay [1] (setting [9]). In addition, the “Systolic BP” value worked out at 162 ± 25 mmHg in assay [1] (setting [5]); 122 ± 15 mmHg in assay [1] (setting [6]); 120 ± 16 mmHg in assay [1] (setting [7]); 118 ± 14 mmHg in assay [1] (setting [8]); 117 ± 14 mmHg in assay [1] (setting [9]). Further, the “HEART RATE” value in assay [1] (setting [6]) was found to be 110 ± 16 bpm; in assay [1] (setting [7]), 106 ± 16 bpm; in assay [1] (setting [8]) it was 102 ± 15 bpm; in assay [1] (setting [9]), 99 ± 14 bpm. The “ln(NE) mean” value in assay [2] (30th min recovery, N=81) was 6.31; in assay [2] (rest (before exercise and before atropine), N=90), 6.38.

On to `CCCCc1oc2ccccc2c1C(=O)c1cc(I)c(OCCN(CC)CC)c(I)c1` [Amiodarone], for which the “effect on total mortality” value in assay [3] is listed as “has not been shown to have a beneficial effect”.

The record behind these values is patent US20110190834A1, “DEVICES AND METHODS FOR SUPPRESSION OF SYMPATHOEXCITATION” (priority 2010, published 2011).
